Test [1] concerns Leptosphaeria nodorum. Briefly: Activity against wheat leafspot (LN). The following applies: direct therapeutic foliar spray, 600 ppm, 6-8 days. The format is in vivo. The essentials: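 Therapeutic foliar spray: compound at 600 ppm applied to single-leaf wheat (cv Norman) 24 h after inoculation with 1.5×10^6 conidia/ml. Disease control scored after 6-8 days at 22° C and 70% humidity as lesions per leaf versus untreated or diluent-sprayed controls.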

The test system of test [2] is Phytophthora infestans. The format is in vivo. The following applies: tomato, direct protectant foliar spray.
In test [3] the test system is Pseudocercosporella herpotrichoides. Briefly: Activity against wheat eyespot in-vitro (PHI). Format: cell-based. The following applies: 10 ppm, 10 days, 20° C., mycelial growth. An outline of the steps: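 Mycelial growth was scored after 10 days at 20 °C against untreated or diluent controls. The broth was half-strength potato dextrose, holding 10 ppm test compound (from acetone) and 5×10^4 fragments/ml of the eyespot fungus.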

The test system of test [4] is Pyricularia oryzae. Format: in vivo. The following applies: rice seedlings, direct therapeutic foliar spray, 600 ppm, 4-5 days.
The subject of test [5] is Erysiphe graminis f.sp. hordei. Briefly: Direct protectant activity against barley powdery mildew (EGP). The format is in vivo. The following applies: direct protectant foliar spray, 8 days. An outline of the steps:
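Rating reflects percentage of leaf area with sporulation compared with untreated or diluent-sprayed controls. Protectant spray was applied to single-leaf barley (cv Golden Promise) 24 h before conidia inoculation. Plants were kept at 18 °C and 40% RH throughout, with 8 days of disease development.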

Test [6] concerns Rhizoctonia solani. As to the kind of experiment: Activity against Rhizoctonia in-vitro (RSI). The format is cell-based. The following applies: 10 ppm, 10 days, 20° C., mycelial growth. The essentials:
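Compound at a final 10 ppm (acetone vehicle) in half-strength PDB, inoculated with 5×10^4 fragments/ml of shaken-culture R. solani mycelium. After incubation at 20° C for 10 days, growth scored as a rating versus untreated or diluent-treated controls.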

Test [7] concerns Plasmopara viticola. Briefly: Antisporulant activity against vine downy mildew (PVA). The format is in vivo. The following applies: vine leaves, antisporulant foliar spray, 600 ppm, 750 l/ha. An outline of the steps:
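Cabernet Sauvignon vines (~8 cm) inoculated on lower leaf surfaces with 5×10^4 zoosporangia/ml, held 24 h at 21° C high humidity then 24 h glasshouse. Infected leaves sprayed underside with 600 ppm compound in 1:1 water/acetone, 0.04% Tween 20, 750 l/ha; 96 h glasshouse, 24 h humidity. Sporulating leaf area rated versus control.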

Test [8] has as its system Botrytis cinerea. As to the kind of experiment: Direct protectant activity against broad bean grey mould (BCB). The format is in vivo. The following applies: direct protectant foliar spray, 600 ppm, 4 days. An outline of the steps: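 Protectant foliar test: lesion coverage assessed 4 days after inoculation and rated relative to untreated or diluent-sprayed plants. Compound applied at 600 ppm to cv The Sutton leaves 24 h before 10^6 conidia/ml suspension; incubation at 22 °C in high humidity.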

Test [9] concerns Erysiphe graminis f.sp. hordei. Briefly: Activity against barley powdery mildew, direct therapeutic (EGT). The format is in vivo. The following applies: direct therapeutic foliar spray, 600 ppm, up to 7 days. The essentials:
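A curative spray at 600 ppm was applied to single-leaf Golden Promise barley inoculated with powdery mildew conidia the previous day. After up to 7 days at 18 °C and 40% humidity, disease control was rated from percent leaf area sporulating relative to untreated or diluent-sprayed controls.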

Test [10] relates to Alternaria solani. As to the kind of experiment: Activity against tomato early blight (AS). Format: in vivo. The following applies: Table VI; tomato seedlings, contact prophylactic foliar spray, 4 days. An outline of the steps: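 Plants were challenged with A. solani conidia (10^4 spores/ml) 24 h after a protective foliar spray of compound in 50:50 acetone/water plus 0.04% Tween 20. Held humid at 21° C for 4 days, then percent leaf area with lesions was scored as a rating relative to controls.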

The subject of test [11] is Venturia inaequalis. As to the kind of experiment: Activity against apple scab in-vitro (VII). Format: cell-based. The following applies: 10 ppm, 10 days, 20° C., mycelial growth. The essentials:
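V. inaequalis propagules (5×10^4/ml, malt agar-grown) were exposed in half-strength PDB to 10 ppm final test compound delivered in acetone. Growth was scored after incubation for 10 days at 20° C, as a rating relative to untreated or diluent-sprayed controls.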

Eight molecules from patent publication US5591741A, “Fungicidal spiroheterocyclic derivatives” (American Cyanamid Company, priority 1993, dated 1997) can be followed below.

For the molecule `CC1CN(C2COC3(CCCCC3)C2)CC(C)O1` (stereo not shown) [Compound 36], in test [1], the “disease control rating LN” value is 0 (less than 50% disease control). For the same molecule, the “disease control rating PIP” value in test [2] was 0 (less than 50% disease control). The “disease control rating PHI” value in test [3] was 0 (less than 50% disease control). In addition, the “disease control rating PO” value in test [4] is given as 0 (less than 50% disease control). In test [5], the “disease control rating EGP” value is listed as 2 (greater than 80% disease control). In addition, the “disease control rating RSI” value in test [6] is given as 0 (less than 50% disease control). In [7], the “disease control rating PVA” value is 0 (less than 50% disease control). Besides, in test [8], the “disease control rating BCB” value is 0 (less than 50% disease control). Further, the “disease control rating EGT” value in test [9] was 2 (greater than 80% disease control). Also, the “disease control rating AS” value in test [10] is 0 (less than 50% disease control). For the same molecule, the “disease control rating VII” value in test [11] is on record as 1 (about 50-80% disease control).

As to `CCCCCCNC1COC2(CCC(C(C)(C)C)CC2)C1` (stereo not shown) [Compound 37], the “disease control rating LN” value in [1] was 0 (less than 50% disease control). In addition, the “disease control rating PIP” value in [2] is 0 (less than 50% disease control). Also, the “disease control rating PHI” value in test [3] is 1 (about 50-80% disease control). Further, the “disease control rating PO” value in test [4] is given as 0 (less than 50% disease control). Further, in test [5], the “disease control rating EGP” value is 2 (greater than 80% disease control). Also, the “disease control rating RSI” value in test [6] was 0 (less than 50% disease control). Further, in [7], the “disease control rating PVA” value is recorded as 0 (less than 50% disease control). In test [8], the “disease control rating BCB” value was 1 (about 50-80% disease control). The “disease control rating EGT” value in test [9] is listed as 2 (greater than 80% disease control). In addition, in [10], the “disease control rating AS” value is given as 0 (less than 50% disease control). The “disease control rating VII” value in [11] was 0 (less than 50% disease control).

On to `CCCCCCNC1COC2(CCC(C(C)(C)C)CC2)C1` (stereo not shown) [Compound 38], for which the “disease control rating LN” value in test [1] was 0 (less than 50% disease control). Besides, the “disease control rating PIP” value in test [2] is listed as 0 (less than 50% disease control). For the same molecule, the “disease control rating PHI” value in [3] is reported as 2 (greater than 80% disease control). Moreover, the “disease control rating PO” value in test [4] was 0 (less than 50% disease control). The “disease control rating EGP” value in test [5] is given as 2 (greater than 80% disease control). The “disease control rating RSI” value in [6] was 1 (about 50-80% disease control). Further, the “disease control rating PVA” value in [7] is given as 0 (less than 50% disease control). Moreover, the “disease control rating BCB” value in test [8] is 0 (less than 50% disease control). Further, in test [9], the “disease control rating EGT” value is recorded as 2 (greater than 80% disease control). In addition, the “disease control rating AS” value in test [10] is listed as 2 (greater than 80% disease control). The “disease control rating VII” value in test [11] is given as 0 (less than 50% disease control).

As for `CCCCCCNC1COC2(CCC(C(C)(C)C)CC2)C1` (stereo not shown) [Compound 39], the “disease control rating LN” value in test [1] is reported as 0 (less than 50% disease control). Besides, in test [2], the “disease control rating PIP” value is on record as 0 (less than 50% disease control). For the same molecule, the “disease control rating PHI” value in [3] was 1 (about 50-80% disease control). Further, in [4], the “disease control rating PO” value is listed as 0 (less than 50% disease control). For the same molecule, in [5], the “disease control rating EGP” value is recorded as 2 (greater than 80% disease control). Also, in test [6], the “disease control rating RSI” value is on record as 0 (less than 50% disease control). Moreover, the “disease control rating PVA” value in test [7] is on record as 0 (less than 50% disease control). Besides, in test [8], the “disease control rating BCB” value is 0 (less than 50% disease control). The “disease control rating EGT” value in test [9] is 2 (greater than 80% disease control). In test [10], the “disease control rating AS” value is recorded as 2 (greater than 80% disease control). Besides, the “disease control rating VII” value in [11] was 0 (less than 50% disease control).

For `CCCCCCNC1COC2(CCC(C(C)(C)C)CC2)C1` (stereo not shown) [Compound 40], the “disease control rating LN” value in test [1] is reported as 0 (less than 50% disease control). Moreover, the “disease control rating PIP” value in test [2] is on record as 0 (less than 50% disease control). Also, the “disease control rating PHI” value in test [3] is recorded as 1 (about 50-80% disease control). Moreover, the “disease control rating PO” value in test [4] was 0 (less than 50% disease control). In addition, the “disease control rating EGP” value in [5] is 2 (greater than 80% disease control). Also, the “disease control rating RSI” value in test [6] is 0 (less than 50% disease control). Also, the “disease control rating PVA” value in test [7] is 0 (less than 50% disease control). Moreover, the “disease control rating BCB” value in test [8] is 0 (less than 50% disease control). Besides, the “disease control rating EGT” value in test [9] was 2 (greater than 80% disease control). Besides, the “disease control rating AS” value in [10] is given as 2 (greater than 80% disease control). Besides, the “disease control rating VII” value in [11] was 0 (less than 50% disease control).

For `CCCCCCNC1COC2(CCC(C(C)(C)C)CC2)C1` (stereo not shown) [Compound 41], the “disease control rating LN” value in [1] is reported as 1 (about 50-80% disease control). Also, the “disease control rating PIP” value in test [2] was 0 (less than 50% disease control). Also, the “disease control rating PHI” value in [3] is 1 (about 50-80% disease control). In addition, the “disease control rating PO” value in test [4] was 0 (less than 50% disease control). In addition, the “disease control rating EGP” value in test [5] is 2 (greater than 80% disease control). Moreover, the “disease control rating RSI” value in test [6] was 0 (less than 50% disease control). Further, the “disease control rating PVA” value in test [7] was 0 (less than 50% disease control). Besides, in test [8], the “disease control rating BCB” value is 0 (less than 50% disease control). The “disease control rating EGT” value in test [9] was 2 (greater than 80% disease control). Further, the “disease control rating AS” value in [10] was 0 (less than 50% disease control). Besides, the “disease control rating VII” value in test [11] is 0 (less than 50% disease control).

`CCCCCCCCCCNC1COC2(CCC(C(C)(C)C)CC2)C1` (stereo not shown) [Compound 42]: in [1], the “disease control rating LN” value is recorded as 0 (less than 50% disease control). The “disease control rating PIP” value in [2] is listed as 0 (less than 50% disease control). Further, the “disease control rating PHI” value in [3] is given as 1 (about 50-80% disease control). The “disease control rating PO” value in [4] is 0 (less than 50% disease control). The “disease control rating EGP” value in [5] is listed as 2 (greater than 80% disease control). In addition, the “disease control rating RSI” value in [6] was 0 (less than 50% disease control). The “disease control rating PVA” value in test [7] is reported as 0 (less than 50% disease control). Besides, the “disease control rating BCB” value in test [8] is recorded as 0 (less than 50% disease control). In addition, in test [9], the “disease control rating EGT” value was 2 (greater than 80% disease control). Moreover, in [10], the “disease control rating AS” value was 0 (less than 50% disease control). For the same molecule, in test [11], the “disease control rating VII” value is 2 (greater than 80% disease control).

In the case of `CCCCCCCCCCCCNC1COC2(CCC(C(C)(C)C)CC2)C1` (stereo not shown) [Compound 43], the “disease control rating LN” value in test [1] is 2 (greater than 80% disease control). The “disease control rating PIP” value in test [2] was 0 (less than 50% disease control). Also, in [3], the “disease control rating PHI” value is on record as 0 (less than 50% disease control). In addition, the “disease control rating PO” value in test [4] is listed as 0 (less than 50% disease control). In test [5], the “disease control rating EGP” value is 2 (greater than 80% disease control). Further, the “disease control rating RSI” value in [6] was 0 (less than 50% disease control). Further, the “disease control rating PVA” value in test [7] is on record as 0 (less than 50% disease control). Besides, the “disease control rating BCB” value in test [8] was 0 (less than 50% disease control). Further, the “disease control rating EGT” value in test [9] is 2 (greater than 80% disease control). In [10], the “disease control rating AS” value is given as 0 (less than 50% disease control). In test [11], the “disease control rating VII” value is 2 (greater than 80% disease control).
